The test system of this assay is H929 and MM1R myeloma cell lines. Kind of assay: MTS cellular cytotoxicity assay, single agent. The assay is classed as cell-based. The procedure: H929 and MM1R myeloma cell lines were cultured in vitro and cellular cytotoxicity was measured by MTS ([3-(4,5-dimethylthiazol-2-yl)-5-(3-carboxymethoxyphenyl)-2-(4-sulfophenyl)-2H-tetrazolium, inner salt) assay. The effect of the combination in terms of additive, antagonistic, or synergistic activity was assessed by Valeriote and Lin's method (Valeriote and Lin, Cancer Chemother Rep 1975; 59:895-900). […] To test the effect of the combination of all three drugs, cells were cultured with bendamustine (15 μg/ml) and doxorubicin (0.03 μg/ml) for 48 hours, and bortezomib (2.5 nmol/L) was added in the last 24 hours, and cytotoxicity was assayed.

Regarding `Cl.Cn1c(CCCC(=O)O)nc2cc(N(CCCl)CCCl)ccc21` [bendamustine, 1H-benzimidazole-2-butanoic acid, 5-[bis(2-chloroethyl)amino]-1-methyl-, monohydrochloride], the CC50 (48 h, read-out: concentration lethal to 50% of cells (LC50)) amounted to 34.9 ± 3.4 µg/mL. Besides, the “MM cell death induced by drug alone” value (bendamustine alone, repeated experiments) is “time and dose-dependent”.

(Values after patent US20110217258A1, “Combined Use of Bendamustine, Doxorubicin and Bortezomib for the Treatment of Multiple Myeloma” (Indiana University Research and Technology Corporation, priority 2008, published 2011).)
